From patent US20090264383A1, “Inhibitor of Adenylyl Cyclase for Treating a Disorder of the Circadian Rhythm” (Medical Research Council, priority 2006, published 2009)
Entries after “also recorded” stand apart in the source; their conditions may differ.

Tests used:
organotypic SCN slices = experiment: Bioluminescence recording of circadian gene expression in organotypic SCN slices (mPer1::luc / PER2::LUC); type: cell-based, mice
Description: (§1) Per1::luciferase and; Per2-luc transgenic mice were used. For organotypic slice culture, brains were removed from pups 5-10 days old and sectioned at 300 um with a McIlwain “Tissue Chopper.” Slices were sorted and trimmed to contain principally SCN tissue and placed onto a Millipore membrane insert (PICMORG) for culture at 37° C. in 5% CO2 as described previously (Gainer et al, 1998).
Recordings of luciferase activity from organotypic slices of SCN or peripheral tissues were made from 5-7 day old pups from PER2::LUC and, Per1::LUC mice using either photomultiplier assemblies for whole tissue emission or CCD camera for single SCN cell imaging (Hamamatsu Photonics Ltd, U.K.) as described May Wood et al 2006 Curr. Biol. Vol. 16 pp 599-605. cAMP-ELISA kit was purchased from R&D systems (Wiesbaden, Germany). NIH 3T3 cells were cultured as described (Kume et al 1999 Cell Vol 98 pp 193-205) and transfected using Genejuice (Novagen, San Diego, Calif.). […] Drugs were solubilized in medium or dimethylsulfoxide (DMSO) to make stock solutions 50-1000× the working solutions. [DMSO] was never greater than 0.4%. RNA-interference against Epac1 and Epac 2 used pre-validated sequences as instructed (Validated Stealth RNAi, Invitrogen, CA). Western Blots were performed as Reddy et al (2006 Curr. Biol. Vol 16 oo 1107-15). Behavioural rhythms, recorded by running wheel and passive infra-red movement detectors, were analysed in Clocklab (Actimetrics, Evanston Ill.). Central cannulae directed stereotaxically at the SCN and sub-cutaneous minipumps (Alzet® model 1002 pump and brain infusion kit II) for drug infusion were fitted as instructed (Durect Corp. Cupertino, Calif.).
Statistical analysis was performed using Prism GraphPad™ and Statview™. Periods were calculated over ≧3 days recoding For comparative purposes, transcriptional amplitude from PMT recordings was calculated as 100× (post-treatment emission peak-trough/pre-treatment peak-trough). In all cases error bars indicate SEM about the mean where n≧3.

[1] = system: Slices/3T3 cells/other tissues; conditions: 10 mM LiCl2 (slices); 2 mM THFA (slices/3T3 cells/other tissues)
Description: as §1

inositol monophosphatase = target: T1, inositol monophosphatase (Homo sapiens, UniProt P29218); conditions: cited from earlier work
T1 sequence (P29218 1-277): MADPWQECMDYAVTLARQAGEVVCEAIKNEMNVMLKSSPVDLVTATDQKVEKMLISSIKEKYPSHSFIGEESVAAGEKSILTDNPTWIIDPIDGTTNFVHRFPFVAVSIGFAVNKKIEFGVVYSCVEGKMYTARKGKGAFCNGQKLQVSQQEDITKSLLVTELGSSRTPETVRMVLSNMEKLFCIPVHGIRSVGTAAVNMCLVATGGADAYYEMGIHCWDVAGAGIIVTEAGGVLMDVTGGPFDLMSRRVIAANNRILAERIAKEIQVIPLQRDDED

[2] = target: T2, inositol polyphosphate 1-phosphatase (Homo sapiens, UniProt P49441); conditions: cited from earlier work
T2 sequence (P49441 1-399): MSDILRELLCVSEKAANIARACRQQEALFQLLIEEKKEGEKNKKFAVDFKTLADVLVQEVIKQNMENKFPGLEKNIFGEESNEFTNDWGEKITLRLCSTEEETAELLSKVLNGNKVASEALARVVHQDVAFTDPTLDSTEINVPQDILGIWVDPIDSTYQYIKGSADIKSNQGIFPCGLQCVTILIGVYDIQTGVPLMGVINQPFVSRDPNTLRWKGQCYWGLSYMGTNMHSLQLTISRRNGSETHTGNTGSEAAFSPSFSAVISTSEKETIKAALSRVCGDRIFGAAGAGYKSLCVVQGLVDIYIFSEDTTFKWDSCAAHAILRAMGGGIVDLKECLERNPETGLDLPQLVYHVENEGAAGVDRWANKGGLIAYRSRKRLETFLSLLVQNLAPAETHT

[3] = target: T3, bisphosphate nucleotidase (Homo sapiens, UniProt O95861); conditions: cited from earlier work
T3 sequence (O95861 1-308): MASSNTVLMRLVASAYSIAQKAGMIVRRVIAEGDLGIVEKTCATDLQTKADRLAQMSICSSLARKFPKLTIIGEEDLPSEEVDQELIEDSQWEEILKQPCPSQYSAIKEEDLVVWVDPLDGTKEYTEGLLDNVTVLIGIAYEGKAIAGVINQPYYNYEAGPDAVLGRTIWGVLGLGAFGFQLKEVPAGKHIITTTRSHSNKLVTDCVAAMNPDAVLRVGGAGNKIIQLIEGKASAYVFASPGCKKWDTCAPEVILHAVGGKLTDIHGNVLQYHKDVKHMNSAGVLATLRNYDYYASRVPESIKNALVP

[4] = 1 mM lithium final concentration in human serum; cited from earlier work
Water solubility = type: physicochemical
[5] = compared with THFA; cited from earlier work

| water solubility (Water solubility) | solubility (Water solubility; water, read-out: water soluble up to) [mM] | Compound | increase in SCN period in vitro (organotypic SCN slices; 10 mM lithium) [h] | circadian period (organotypic SCN slices; lithium treatment, organotypic slices, concentration not given) | increase in circadian period (organotypic SCN slices; lithium, organotypic tissue extracts) [h] | circadian period (organotypic SCN slices; slices in 10 mM lithium) [h] | appearance of slices / cells / tissues [1] | EC50 (inositol monophosphatase) [µM] | EC50 [2] [µM] | EC50 [3] [µM] | toxicity [4] | effect on circadian period (organotypic SCN slices; wild-type mPer1::luc / PER2::LUC SCN slices) | metabolic and chemical stability [5] |
| --- | --- | --- | --- | --- | --- | --- | --- | --- | --- | --- | --- | --- | --- |
| – | – | [Li] [Lithium] | 2 to 3 | approximately 26 hours | ~2 | 26 | appear perfectly healthy | < 2000 | < 2000 | < 2000 | non-toxic | – | – |
| water soluble | ≥ 125 | Nc1ncnc2c1ncn2C1CCCC1 [9-(cyclopentyl)-adenine, 9-(Cyclopentyl)-adenine] | – | – | – | – | – | – | – | – | – | Reversible period lengthening; also recorded: Period was lengthened | greater metabolic and chemical stability than THFA |
